“Also recorded” adds a separate entry of the source.

One series relates to recombinant CHIP. Nature of the series: Chemical crosslinking of recombinant CHIP in vitro. In kind it is biochemical, Human. The note with it: sodium deoxycholate, Coomassie Blue-stained reducing SDS-PAGE. How it is done:
(§1) Human recombinant full length CHIP and its truncated versions were purified from Escherichia coli BL21 cells using Glutathion Sepharose 4B (GE Healthcare). Sepharose-bound GST-CHIP was subjected to overnight treatment with PreScission protease and the released tag-free protein was collected. Size exclusion chromatography on a HiLoad Superdex 200 column (GE Healthcare) followed to ensure the purity and homogeneity of proteins. All CHIP variants were kept in HSP70 buffer (25 mM HEPES KOH pH 7.5, 150 mM KCl, 5 mM MgCl2, 5% glycerol, 1 mM DTT).
5 µM of recombinant CHIP were crosslinked with 0.025% glutaraldehyde for 10 min at 30°C unless indicated otherwise. Crosslinking reaction was quenched with 100 mM Tris HCl pH 7.5 for 10–15 min at RT. Where indicated, HSP70 peptide at 800 μM was pre-incubated at 30°C for 20 min before adding glutaraldehyde. Crosslinking on 20% PA-containing liposomes was performed after centrifugation on the resuspended pellet. For CHIP monomerization, fresh 10% sodium deoxycholate stock solution was used. Crosslinks were analyzed with SDS-PAGE and CBB staining.

Series [1] deals with CHIP. The note with it: steroid detergent deoxycholate, monomerization; ref Nikolay et al., 2004; cited from earlier work. An excerpt:
Since lipid binding can influence the activity of enzymes ([Fang et al., 2001]; [Leonard and Hurley, 2011]), we sought to assess the ubiquitylation function of CHIP upon interaction with membranes. […] First, CHIP remained dimeric and was still capable of oligomerization (Figure 4a).

The test system of series [2] is CHIP. Nature of the series: Liposome floatation assay. The note with it: 20% PA, 1 mM liposomes, 0.5 µM CHIP, 30 min at 37°C, pH 7.5. In kind it is binding, Human. As for the experimental part: as §1
(§2) Liposomes were prepared by mixing 1,2-dioleoyl-sn-glycero-3-phosphocholine (DOPC) with indicated amount (wt/wt) of either 1,2-dipalmitoyl-sn-glycero-3-phosphate (phosphatidic acid) or (wt/wt) 1,2-dipalmitoyl-sn-glycero-3-phosphoinositol-4-phosphate (PI4P) in a 1.5 ml reaction tube (Eppendorf). […] The liposome suspension was subjected to five freeze-thaw cycles in liquid nitrogen to promote unilamellar vesicle formation, aliquoted in 200 µl and pulse-sonicated for 8 s at 45% output with MS72 sonotrode (Bandelin) to create a population of homogenously sized liposomes as determined using NanoSight (Malvern Instruments). […]
1 mM liposomes and 0.5 µM CHIP were incubated in 150 µl reconstitution buffer for 30 min at 37°C. […] Resulting fractions were analyzed by SDS-PAGE and western blotting after loading dilution-corrected amount of respective fractions.

The subject of series [3] is CHIP. Nature of the series: Liposome pelleting assay, effect of lipids and HSP70-C on CHIP association. The note with it: 2 mM liposomes, 2 µM CHIP, 30 min at 37°C, N = 3. In kind it is binding, Human. How it is done: as §1
Human C-terminal HSP70 6xHis-tagged N-terminally was purified from Escherichia coli BL21 cells using 1 ml HisTrap column (GE Healthcare). Bound protein was eluted by applying an imidazole gradient. Fractions containing the protein were subjected to size exclusion chromatography using HiLoad Superdex 200 in HSP70 buffer. His-NQO1, His-UbcH5a, His-Uev1a and His-Ubc13 were purified similarly except that PBS/1 mM DTT was used during size exclusion chromatography. Purity of recombinant protein was evaluated by SDS-PAGE and Coomassie BB G-250 (CBB) staining. Concentration of proteins was determined measuring absorbance at 280 nm and using ProtParam (ExPASy) to calculate respective extinction coefficients. Proteins were aliquoted, snap-frozen and stored at −80°C.
Liposomes were prepared by mixing 1,2-dioleoyl-sn-glycero-3-phosphocholine (DOPC) with indicated amount (wt/wt) of either 1,2-dipalmitoyl-sn-glycero-3-phosphate (phosphatidic acid) or (wt/wt) 1,2-dipalmitoyl-sn-glycero-3-phosphoinositol-4-phosphate (PI4P) in a 1.5 ml reaction tube (Eppendorf). Lipid mixtures were dried under a nitrogen stream and kept for 1 hr under vacuum. Liposomes were rehydrated in 1 ml filtered reconstitution buffer (25 mM HEPES KOH pH 7.5, 50 mM NaCl) to a concentration of 10 mM lipids. Liposomes were reconstituted by shaking at 2000 rpm for 1 hr at 50°C, followed by sonication for 1 hr at 50°C in a water bath. The liposome suspension was subjected to five freeze-thaw cycles in liquid nitrogen to promote unilamellar vesicle formation, aliquoted in 200 µl and pulse-sonicated for 8 s at 45% output with MS72 sonotrode (Bandelin) to create a population of homogenously sized liposomes as determined using NanoSight (Malvern Instruments). Sonicated liposomes were pooled, aliquoted again, snap-frozen and stored at −80°C.
2 mM liposomes were mixed with 2 µM recombinant protein in 50 µl reconstitution buffer. The suspension was incubated shaking at 450 rpm for 30 min at 37°C. Liposomes with bound protein were sedimented by ultracentrifugation at 100,000 g for 30 min at 25°C. Liposome pellet was washed with 50 µl of reconstitution buffer and sedimented again at 100,000 g for 30 min at 25°C. The pellet was resuspended in 10 µl reconstitution buffer, resolved by SDS-PAGE and analyzed by CBB staining. Images were acquired with ChemiDoc MP imaging system and quantified using Image Lab 5.0 software (both from Bio-Rad Laboratories). For competition assays, indicated amounts of C-terminal HSP70 were preincubated with 2 µM CHIP for 20 min at 37°C prior to co-sedimentation.

Series [4] concerns CHIP. Description: Lipid-binding assay (membrane-immobilized lipids, lipid arrays). The arrangement: species or system Human. As to conditions: lipid strips/PIP strips, 0.5 µg/ml wild-type chaperone-free CHIP, 1 hr at RT, anti-C-CHIP antibody. As for the experimental part: as §1
Membrane-immobilized lipids (Membrane lipid strips P-6002 and PIP strips P-6001) were purchased from Echelon Research Laboratories. The strips were incubated with blocking buffer (3% fatty acid free BSA, 0.1% (v/v) Tween-20 in PBS pH 7.5) for 1 hr at RT. 0.5 µg/ml of purified wild-type or mutant CHIP was added in blocking buffer and incubated for 1 hr at RT. Strips were washed and bound proteins were detected using anti-C-CHIP antibody. For competition experiments, ten times molar excess of C-terminal HSP70 was added to CHIP in blocking buffer.

Series [5] deals with NQO1 P187S mutant; ubiquitin; CHIP. Nature of the series: In vitro ubiquitylation on liposomes. It is filed as biochemical. As to conditions: 37°C 1 hr. How it is done:
In vitro ubiquitylation was performed in 50 mM Tris HCl pH 7.5, 50 mM NaCl, 10 mM MgCl2, 2 mM DTT and 2 mM ATP. Reactions contained 100 nM UBE1 (Boston Biochem, Cambridge, MA), 2 µM either UbcH5a or Uev1A/Ubc13, 5 µM CHIP and […] ubiquitin from bovine erythrocytes (Sigma-Aldrich). 2.5 µM NQO1 P187S mutant was added as substrate where indicated. Reactions proceeded at 37°C for 1 hr and then were stopped by adding reducing SDS sample buffer and boiling samples at 95°C for 5 min. Protein modification was analyzed by SDS-PAGE and immunoblotting using antibodies against NQO1, CHIP and ubiquitin. Where indicated, CHIP pelleted with 20% PA-containing liposomes was used instead of soluble protein.

For a further series, the system named is trypsin. Nature of the series: Protease sensitivity assay (trypsin). In kind it is physicochemical. The note with it: 0.5 ng/µl trypsin, 37°C, 20% PA-containing liposomes; no significant difference; N = 3. How it is done:
CHIP pelleted with 20% PA-containing liposomes was subjected to 0.5 ng/µl trypsin treatment at 37°C. Hydrolysis was stopped by adding hot reducing SDS sample buffer and boiling for 5 min. Samples were analyzed by SDS-PAGE and CBB staining. For controls without liposomes, protein was used at concentration assuming 30% binding to liposomes. Images were acquired with ChemiDoc MP imaging system and quantified using Image Lab 5.0 software (both from Bio-Rad Laboratories).

Series [6] can be described thus: Liposome pelleting assay, binding of CHIP and truncated variants to liposomes. The note with it: 20% PA- or 5% PI4P-containing DOPC liposomes, 2 mM liposomes, 2 µM CHIP, 37°C; up to.
Source text: (§3) For mammalian expression of EGFP, the expression vector pEGFP-N1 from Clontech (Mountain View, CA) was used. N-terminal EGFP-CHIP fusion protein was constructed by cloning human CHIP coding sequence in pEGFP-C2 vector (Clontech) using HindIII and BamHI restriction sites. A fusion between the N-terminalβ−1,4-galactosyltransferase1 and EGFP was used as a marker of the Golgi apparatus, farnesylated EGFP as a marker of plasma membrane (both constructs from Clontech). Untagged and 3xFLAG-tagged human CHIP for mammalian expression were constructed in pCMV-10 vector (Sigma-Aldrich). HSP70 was amplified from human cDNA and cloned into pcDNA3. 1 expression vector without a tag. HSP70 lacking the last amino acid (HSP70ΔD) was prepared by site-directed mutagenesis. Vectors of full-length CHIP, UbcH5a and mutant NQO1 for bacterial expression were prepared as described ([Martínez-Limón et al., 2016]). The TPR domain bacterial expression vector (TPR) was created by exchanging glutamate152 codon to a stop codon in the full-length CHIP vector. CHIP without TPR domain (ΔTPR) was cloned by deleting the sequence between serine25 and argininge130 by means of PCR. […]
as §2
2 mM liposomes were mixed with 2 µM recombinant protein in 50 µl reconstitution buffer. […] The pellet was resuspended in 10 µl reconstitution buffer, resolved by SDS-PAGE and analyzed by CBB staining. Images were acquired with ChemiDoc MP imaging system and quantified using Image Lab 5.0 software (both from Bio-Rad Laboratories). […]

Series [7] can be described thus: Lipid-binding assay, binding of CHIP variants to phospholipids. The note with it: 0.5 µg/ml protein, 1 hr at RT.
Source text: as §3
Membrane-immobilized lipids (Membrane lipid strips P-6002 and PIP strips P-6001) were purchased from Echelon Research Laboratories. […] Strips were washed and bound proteins were detected using anti-C-CHIP antibody. […]

In the case of `C[C@H](CCC(=O)O)[C@H]1CC[C@H]2[C@@H]3CC[C@@H]4C[C@H](O)CC[C@]4(C)[C@H]3C[C@H](O)[C@]12C` [deoxycholate, sodium deoxycholate], the “monomerization of CHIP” value with recombinant CHIP is “monomerizes CHIP in vitro”. Also, the “ubiquitin ligase activity of CHIP” value in the series with CHIP [1] was “reversibly inactivate its ubiquitin ligase activity”.

For the molecule `CCCCCCCCCCCCCCCC(=O)OC[C@H](COP(=O)(O)O)OC(=O)CCCCCCCCCCCCCCC` [PA, 1,2-dipalmitoyl-sn-glycero-3-phosphate], the “CHIP cofloatation with DOPC liposomes” value in the series on CHIP [2] is “strongly enhanced”. Besides, the “CHIP association with DOPC-liposomes (pelleting), 5% PA” value in the series on CHIP [3] (5% PA, no significant difference) was “insufficient to strengthen binding of CHIP onto liposomes; also recorded: insufficient to enhance binding of CHIP to DOPC-liposomes”. In addition, the “CHIP association with DOPC-liposomes (pelleting), PA” value in the series with CHIP [3] (PA-containing liposomes (Figure 2b)) was “pelleting was increased in the presence of PA; also recorded: strongly”. Moreover, the “CHIP binding to phospholipid on lipid array” value in the series with CHIP [4] is given as “CHIP specificity mainly to phosphatidic acid (PA)”.

As for “CHIP: human recombinant full length CHIP, ubiquitin ligase”, the “ubiquitylation of NQO1 and K63 chain formation while attached to liposomes” value in series [5] (5 µM CHIP or CHIP pelleted with 20% PA-containing liposomes, UbcH5a or Ubc13/Uev1a) is “remains capable to ubiquitylate the substrate protein NQO1 and form unattached K63-conjugated chains”. Further, in series [5] (Ubc13/Uev1a, 20% PA-containing liposomes), the “K63-based ubiquitin polymerization on liposomes versus soluble” value is “slightly weaker on liposomes”. Moreover, in series [5] (UbcH5a, 20% PA-containing liposomes), the “auto-ubiquitylation on liposomes versus soluble” value is recorded as “somewhat stronger on liposomes”. Moreover, in the series on trypsin, the “sensitivity to proteolysis on liposomes versus in solution” value was “does not change its sensitivity to proteolysis”. For the same molecule, the “CHIP associated with liposomes, % of input” value in series [6] is on record as 50–60%.

B1: m2Δ: CHIP with KRKK to AAAA (221–224 aa) (protein, UniProt Q9UNE7 1-303, looked up, variant K221A R222A K223A K224A)
E3 ubiquitin-protein ligase …: MKGKEEKEGGARLGAGGGSPEKSPSAQELKEQGNRLFVGRKYPEAAACYGRAITRNPLVAVYYTNRALCYLKMQQHEQALADCRRALELDGQSVKAHFFLGQCQLEMESYDEAIANLQRAYSLAKEQRLNFGDDIPSALRIAKKKRWNSIEERRIHQESELHSYLSRLIAAERERELEECQRNHEGDEDDSHVRAQQACIEAKHDKYMADMDELFSQVDEAAAARDIPDYLCGKISFELMREPCITPSGITYDRKDIEEHLQRVGHFDPVTRSPLTQEQLIPNLAMKEVIDAFISENGWVEDY
Regarding B1, in [7], the “phospholipid binding of CHIP variant versus wild-type” value is “affects CHIP interaction with phospholipids in vitro”.

The values above are taken from paper PMC5665643, “CHIP as a membrane-shuttling proteostasis sensor” (eLife, 2017).
